From patent US20260217701A1, “SELECTIVE BET INHIBITORS AND USES THEREOF” (Tay Therapeutics Limited, priority 2022, published 2026)
Values joined by “and” are separate entries in the source; they are usually repeats but may differ in a detail not shown here. Equal values may be shown once. “Also recorded” adds a separate entry of the source. Marks after values point to notes of the source that are not given here.

Assays:
renal fibrosis (UUO) = assay: Unilateral Urethral Obstruction (UUO) model of renal fibrosis: clinical histopathology scores; format: in vivo, rats; design: key to Glomerulosclerosis clinical score / Interstitial nephritis clinical score / Collagen fiber deposition clinical score / Nephropathy clinical score: 0=no more or absence; 1=low; 2=moderate; 3=high; 4=severe
Procedure: Starting on Day 0, animals in group 2 were administered daily doses of the vehicle for 14 days. Starting on Day 0, animals in group 3 were administered daily doses of Compound A (10 mg/kg) for 14 days. A design of the UUO study is depicted in FIG. 24.
Blind clinical nephropathy scores were conducted for all animals in the study. Glomerulosclerosis, interstitial nephritis, collagen fiber deposition, and nephropathy were each assessed for all experimental rats, and a total clinical score was determined for each rat. The scoring system represented the degree or percentage of lesions in the whole kidney. Clinical score assessments were performed on Day 14.

[1] = tested on: experimental autoimmune encephalomyelitis; assay: Experimental autoimmune encephalomyelitis (EAE) model: EAE scores, onset, incidence; format: in vivo, C57BI/6 mice
Procedure: Experimental Method H: EAE in animals treated with a BET inhibitor and vehicle. Animals were assigned to the groups outlined in Table 38.
Compound A may be formulated as illustrated in Experimental Method A (see Table 2E.). A 40 mg/mL stock solution of Compound A in DMSO was prepared and aliquots stored at −20° C. On each day of preparation an e.g., 0.75 mL aliquot of thawed stock was diluted with an equal volume of DMSO. The remaining vehicle components were added to provide the highest dose and then diluted with vehicle to provide lower doses. A 30 mg/mL stock solution of FTY720 in ethanol was prepared and stored at −20° C. Daily, the stock solution was diluted with room temperature water to a final dosing concentration of 0.6 mg/mL. Formulated Compound A, FTY720 and vehicle were each at room temperature for dosing.
Female C57BI/6 mice (9 weeks old) were acclimated for seven days prior to study initiation. On Day-1, animals were assigned to groups in a balanced manner to achieve similar average weights across the different groups. Chronic EAE was induced in female C57BI/6 mice following immunization with an emulsion of MOG35-55/CFA on Day 0, followed by an injection of pertussis toxin two hours after the initial immunization. On Day 1, a second injection of pertussis toxin was administered 24 hours after the initial immunization. Mice were injected subcutaneously at two sites on the back with the MOG35-55/CFA emulsion (Hooke Kit™ MOG35-55/CFA Emulsion PTX). The first injection site was located approximately 1 cm caudal of the neckline (upper back), and the second injection site was approximately 2 cm cranial of the base of the tail (lower back). The injection volume was 0.1 mL for each injection. The pertussis toxin was administered at the described times through intraperitoneal injection at a concentration of 85 ng/dose for both injections.
Body weight was measured three times a week (Monday, Wednesday, and Friday) starting on Day-1. Animals were scored daily for EAE starting on Day 7. In-between scores were assigned when the clinical signs fell between two below defined scores.

[2] = UUO rats, individual animals 1-8
[3] = all animals receiving Compound A

## Cn1cc(-c2ccccc2)c(-c2cn(C)c(=O)c3[nH]c(-c4cnn(C(F)(F)F)c4)cc23)cc1=O [Compound A, 6-methyl-4-(1-methyl-2-oxo-5-phenyl-1,2-dihydropyridin-4-yl)-2-(1-(trifluoromethyl)-1H-pyrazol-4-yl)-1,6-dihydro-7H-pyrrolo[2,3-c]pyridin-7-one]
Renal fibrosis (UUO); UUO + Compound A (10 mg/kg) relative to sham treated animals
  Total histology score (FIG. 26D): marked decrease in total histology score
Renal fibrosis (UUO); [2]
  Collagen fiber deposition clinical score: 1 (4×) and 2 (3×) and 3
  Glomerulosclerosis clinical score: 0
  Interstitial nephritis clinical score: 2 (4×) and 3 (4×)
  Nephropathy clinical score: 1 and 2 (7×)
  Total score: 4 and 7 (3×) and 5 (3×) and 8
Renal fibrosis (UUO); UUO rats, 10 mg/kg PO QD, 10 mg/kg
  Clinical histopathology scores / histological indicators of fibrosis relative to UUO + vehicle: reduced levels of interstitial nephritis, collagen fiber deposition, and nephropathy, as well as total clinical scores; also recorded: reduced the severity of all histological indicators of fibrosis; also recorded: ameliorates clinical symptoms associated with UUO
[1]; 1 mg/kg (lowest dose)
  EAE incidence rate: 100%
[1]; 1 mg/kg, 3 mg/kg and 10 mg/kg
  Mean maximum EAE scores relative to vehicle: significantly reduced mean maximum scores
[1]; 3 mg/kg
  EAE incidence rate: 91.7%
[1]; 10 mg/kg
  EAE incidence rate: 83.3%
[1]; Compound A 1 mg/kg (Group 2)
  Incidence of EAE (%): 100%
  Mean Day of Onset (SEM): 14.5 (0.9) Day
  Mean End Score (SEM): 1.05 (0.35)*
  Mean Maximum Score (SEM): 2.18 (0.25)*
  Median Day of Onset: 13.0 days
[1]; Compound A 1 mg/kg (Group 2), Day 7
  Mean EAE score: 0.00
[1]; Compound A 1 mg/kg (Group 2), Day 8
  Mean EAE score: 0.00
[1]; Compound A 1 mg/kg (Group 2), Day 9
  Mean EAE score: 0.00
[1]; Compound A 1 mg/kg (Group 2), Day 10
  Mean EAE score: 0.00
[1]; Compound A 1 mg/kg (Group 2), Day 11
  Mean EAE score: 0.05
[1]; Compound A 1 mg/kg (Group 2), Day 12
  Mean EAE score: 0.18
[1]; Compound A 1 mg/kg (Group 2), Day 13
  Mean EAE score: 0.55
[1]; Compound A 1 mg/kg (Group 2), Day 14
  Mean EAE score: 0.95
[1]; Compound A 1 mg/kg (Group 2), Day 15
  Mean EAE score: 1.27
[1]; Compound A 1 mg/kg (Group 2), Day 16
  Mean EAE score: 1.45
[1]; Compound A 1 mg/kg (Group 2), Day 17
  Mean EAE score: 1.73
[1]; Compound A 1 mg/kg (Group 2), Day 18
  Mean EAE score: 1.68
[1]; Compound A 1 mg/kg (Group 2), Day 19
  Mean EAE score: 1.68
[1]; Compound A 1 mg/kg (Group 2), Day 20
  Mean EAE score: 1.55
[1]; Compound A 1 mg/kg (Group 2), Day 21
  Mean EAE score: 1.64
[1]; Compound A 1 mg/kg (Group 2), Day 22
  Mean EAE score: 1.32
[1]; Compound A 1 mg/kg (Group 2), Day 23
  Mean EAE score: 1.23
[1]; Compound A 1 mg/kg (Group 2), Day 24
  Mean EAE score: 1.23
[1]; Compound A 1 mg/kg (Group 2), Day 25
  Mean EAE score: 1.09
[1]; Compound A 1 mg/kg (Group 2), Day 26
  Mean EAE score: 1.14
[1]; Compound A 1 mg/kg (Group 2), Day 27
  Mean EAE score: 1.09
[1]; Compound A 1 mg/kg (Group 2), Day 28
  Mean EAE score: 1.05
[1]; Compound A 3 mg/kg (Group 3)
  Incidence of EAE (%): 91.7%
  Mean Day of Onset (SEM): 14.2 (0.4) Day
  Mean End Score (SEM): 0.73 (0.26)**
  Mean Maximum Score (SEM): 1.77 (0.23)***
  Median Day of Onset: 14.0 days
[1]; Compound A 3 mg/kg (Group 3), Day 7
  Mean EAE score: 0.00
[1]; Compound A 3 mg/kg (Group 3), Day 8
  Mean EAE score: 0.00
[1]; Compound A 3 mg/kg (Group 3), Day 9
  Mean EAE score: 0.00
[1]; Compound A 3 mg/kg (Group 3), Day 10
  Mean EAE score: 0.00
[1]; Compound A 3 mg/kg (Group 3), Day 11
  Mean EAE score: 0.00
[1]; Compound A 3 mg/kg (Group 3), Day 12
  Mean EAE score: 0.00
[1]; Compound A 3 mg/kg (Group 3), Day 13
  Mean EAE score: 0.29
[1]; Compound A 3 mg/kg (Group 3), Day 14
  Mean EAE score: 0.63
[1]; Compound A 3 mg/kg (Group 3), Day 15
  Mean EAE score: 0.88
[1]; Compound A 3 mg/kg (Group 3), Day 16
  Mean EAE score: 1.29
[1]; Compound A 3 mg/kg (Group 3), Day 17
  Mean EAE score: 1.67
[1]; Compound A 3 mg/kg (Group 3), Day 18
  Mean EAE score: 1.54
[1]; Compound A 3 mg/kg (Group 3), Day 19
  Mean EAE score: 1.18
[1]; Compound A 3 mg/kg (Group 3), Day 20
  Mean EAE score: 1.23
[1]; Compound A 3 mg/kg (Group 3), Day 21
  Mean EAE score: 1.18
[1]; Compound A 3 mg/kg (Group 3), Day 22
  Mean EAE score: 0.95
[1]; Compound A 3 mg/kg (Group 3), Day 23
  Mean EAE score: 0.91
[1]; Compound A 3 mg/kg (Group 3), Day 24
  Mean EAE score: 0.91
[1]; Compound A 3 mg/kg (Group 3), Day 25
  Mean EAE score: 0.95
[1]; Compound A 3 mg/kg (Group 3), Day 26
  Mean EAE score: 0.95
[1]; Compound A 3 mg/kg (Group 3), Day 27
  Mean EAE score: 0.95
[1]; Compound A 3 mg/kg (Group 3), Day 28
  Mean EAE score: 0.73
[1]; Compound A 10 mg/kg (Group 4)
  Incidence of EAE (%): 83.3%
  Mean Day of Onset (SEM): 13.4 (0.6) Day
  Mean End Score (SEM): 0.29 (0.13)***
  Mean Maximum Score (SEM): 1.67 (0.28)***
  Median Day of Onset: 13.0 days
[1]; Compound A 10 mg/kg (Group 4), Day 7
  Mean EAE score: 0.00
[1]; Compound A 10 mg/kg (Group 4), Day 8
  Mean EAE score: 0.00
[1]; Compound A 10 mg/kg (Group 4), Day 9
  Mean EAE score: 0.00
[1]; Compound A 10 mg/kg (Group 4), Day 10
  Mean EAE score: 0.00
[1]; Compound A 10 mg/kg (Group 4), Day 11
  Mean EAE score: 0.04
[1]; Compound A 10 mg/kg (Group 4), Day 12
  Mean EAE score: 0.21
[1]; Compound A 10 mg/kg (Group 4), Day 13
  Mean EAE score: 0.83
[1]; Compound A 10 mg/kg (Group 4), Day 14
  Mean EAE score: 1.04
[1]; Compound A 10 mg/kg (Group 4), Day 15
  Mean EAE score: 1.33
[1]; Compound A 10 mg/kg (Group 4), Day 16
  Mean EAE score: 1.46
[1]; Compound A 10 mg/kg (Group 4), Day 17
  Mean EAE score: 1.46
[1]; Compound A 10 mg/kg (Group 4), Day 18
  Mean EAE score: 1.54
[1]; Compound A 10 mg/kg (Group 4), Day 19
  Mean EAE score: 1.21
[1]; Compound A 10 mg/kg (Group 4), Day 20
  Mean EAE score: 1.13
[1]; Compound A 10 mg/kg (Group 4), Day 21
  Mean EAE score: 1.17
[1]; Compound A 10 mg/kg (Group 4), Day 22
  Mean EAE score: 0.75
[1]; Compound A 10 mg/kg (Group 4), Day 23
  Mean EAE score: 0.71
[1]; Compound A 10 mg/kg (Group 4), Day 24
  Mean EAE score: 0.63
[1]; Compound A 10 mg/kg (Group 4), Day 25
  Mean EAE score: 0.46
[1]; Compound A 10 mg/kg (Group 4), Day 26
  Mean EAE score: 0.50
[1]; Compound A 10 mg/kg (Group 4), Day 27
  Mean EAE score: 0.46
[1]; Compound A 10 mg/kg (Group 4), Day 28
  Mean EAE score: 0.29
[1]; Day 28, 10 mg/kg
  Mean EAE score compared to positive control FTY720: comparable mean EAE score
[1]; [3]
  Day on which EAE scores peaked: ~17 days
  Mean end EAE scores relative to vehicle: significantly reduced mean end scores
[1]; all doses
  Mean day of onset of EAE compared with vehicle: similar
